Reference: patent US6921806B2, “Plant growth factor” (Kyowa Hakko Kogyo Co. Ltd., priority 1995, dated 2005)
[ ]: non-standard residue; d: D form. sY = N[C@@H](Cc1ccc(OS(=O)(=O)O)cc1)C(=O)O

Tested on: single asparagus cells
Test: bioassay of the plant growth factors: colony formation frequency of incubated single asparagus cells
Format: cell-based, Asparagus officinalis L.
Details: peptide made by synthesizer and enzymatic sulfation
Procedure: Single asparagus cells, as obtained according to the method of Example 4, were implanted in the media, as prepared by the method of Example 5, and incubated with the present plant growth factor in the media. The influence of the plant growth factor on the proliferation of the incubated asparagus cells was determined by measuring the change in the colony formation frequency in each medium. Cells were incubated in a 24-well microtiter plate (IWAKI 3820-024). To each well of the microtiter were added 250 μl of a suspension of single asparagus cells as prepared at a cell density of 2-fold the intended final cell density, 125 μl of the liquid medium having a concentration of 4-fold the intended final concentration, and 125 μl of sterilized distilled water or 125 μl of CM as obtained in Example 6, sterilized through filtration (ADVANTEC DISMIC-13 cp, 0.20 μm) and diluted just before use, and fully stirred. Then, the plates were sealed with vinyl tape in order to prevent vaporization, in which the cells were incubated in the dark at 28° C. with shaking at 120 rpm (TAITEC BR-300L). […] On the basis of the data thus obtained for 3 wells or more, the colony formation frequency (C) and the cell viability (L) were calculated according to the following equations. […] The colony formation frequency for the asparagus cells at each CM concentration was determined. […]

H-[sY]I[sY]TQ-OH [compound (I-1)]
biological activity of the synthesized peptide compared with isolated compound (I-1): exhibited the biological activity at the same concentrations
